# Tests used:
# [1] = tested on: A549 (lung carcinoma); experiment: In vitro antiproliferation assay, A549 cells (TABLE 1 6 point assay; TABLE 2); type: cell-based; conditions: Homo sapiens, A549, 6 point assay; A549 cells; read-out: IC50, A549 cells
# Protocol: (§1) Certain compounds were tested against other cell types for their ability to inhibit proliferation in standard antiproliferation assays.
# [2] = tested on: H1299 (non-small cell lung carcinoma); experiment: In vitro antiproliferation assay, H1299 cells (TABLE 1 6 point assay; TABLE 2); type: cell-based; conditions: Homo sapiens, NCI-H1299, 6 point assay; H1299 cells; read-out: IC50, H1299 cells
# Protocol: as §1
IC50 [1],IC50 [2],Structure (SMILES)
≤ 100 nM,≤ 100 nM,"CN1CCN(c2ccc(Nc3ncc(F)c(NC4C5C=CC(C5)C4C(N)=O)n3)cc2Cl)CC1 (racemic) [compound 233, Racemic-(2-exo,3-exo)-N4-(3-aminocarbonylbicyclo[2.2.1]hept-5-en-2-yl)-N2-[3-chloro-4-(4-methylpiperazin-1-yl)phenyl]-5-fluoro-2,4-pyrimidinediamine]"
≤ 100 nM,≤ 100 nM,"COCc1cc(Nc2ncc(F)c(NC3C4C=CC(C4)C3C(N)=O)n2)ccc1N1CCN(C)CC1 (racemic) [compound 235, Racemic-(2-exo,3-exo)-N4-(3-aminocarbonylbicyclo[2.2.1]hept-5-en-2-yl)-5-fluoro-N2-[3-methoxymethyl-4-(4-methylpiperazin-1-yl)phenyl)-2,4-pyrimidinediamine]"
≤ 100 nM,≤ 100 nM,"CN1CCN(c2ccc(Nc3ncc(F)c(NC4C5C=CC(C5)C4C(N)=O)n3)cc2CO)CC1 (racemic) [compound 236, Racemic-(2-exo,3-exo)-N4-(3-aminocarbonylbicyclo[2.2.1]hept-5-en-2-yl)-5-fluoro-N2-[3-hydroxymethyl-4-(4-methylpiperazin-1-yl)phenyl]-2,4-pyrimidinediamine]"
≤ 100 nM,≤ 100 nM,"CN1CCN(c2ccc(Nc3ncc(F)c(NC4C5C=CC(C5)C4C(N)=O)n3)cc2F)CC1 (racemic) [compound 239, Racemic-(2-exo,3-exo)-N4-(3-aminocarbonylbicyclo[2.2.1]hept-5-en-2-yl)-5-fluoro-N2-[3-fluoro-4-(4-methylpiperazin-1-yl)phenyl]-2,4-pyrimidinediamine]"
≤ 100 nM,≤ 100 nM,"CN1CCN(c2ccc(Nc3ncc(F)c(NC4C5C=CC(C5)C4C(N)=O)n3)cc2C#N)CC1 (racemic) [compound 243, Racemic-(2-exo,3-exo)-N4-(3-aminocarbonylbicyclo[2.2.1]hept-5-en-2-yl)-N2-[3-cyano-4-(4-methylpiperazin-1-yl)phenyl]-5-fluoro-2,4-pyrimidinediamine]"
100 to 1000 nM,100 to 1000 nM,"CNC(=O)c1cc(Nc2ncc(F)c(NC3C4C=CC(C4)C3C(N)=O)n2)ccc1N1CCN(C)CC1 (racemic) [compound 255, Racemic-(2-exo,3-exo)-N4-(3-aminocarbonylbicyclo[2.2.1]hept-5-en-2-yl)-5-fluoro-N2-[3-methylaminocarbonyl-4-(4-methylpiperazin-1-yl)phenyl]-2,4-pyrimidinediamine]"
≤ 100 nM,≤ 100 nM,"COc1cc(Nc2ncc(F)c(NC3C4C=CC(C4)C3C(N)=O)n2)ccc1N1CCN(C)CC1 (racemic) [compound 256, Racemic-(2-exo,3-exo)-N4-(3-aminocarbonylbicyclo[2.2.1]hept-5-en-2-yl)-5-fluoro-N2-[3-methoxy-4-(4-methylpiperazin-1-yl)phenyl]-2,4-pyrimidinediamine]"
100 to 1000 nM,100 to 1000 nM,"CN1CCN(c2ccc(Nc3ncc(F)c(NC4C5C=CC(C5)C4C(N)=O)n3)cc2C(N)=O)CC1 (racemic) [compound 260, Racemic-(2-exo,3-exo)-N2-[3-aminocarbonyl-4-(4-methylpiperazin-1-yl)phenyl]-N4-(3-aminocarbonylbicyclo[2.2.1]hept-5-en-2-yl)-5-fluoro-2,4-pyrimidinediamine]"

# The remaining lines, values behind:
Structure (SMILES),IC50 [1],IC50 [2]
"CN1CCN(c2ccc(Nc3ncc(F)c(NC4C5C=CC(C5)C4C(N)=O)n3)cc2)CC1 (racemic) [compound 230, Racemic-(2-exo,3-exo)-N4-(3-aminocarbonylbicyclo[2.2.1]hept-5-en-2-yl)-5-fluoro-N2-[4-(4-methylpiperazin-1-yl)phenyl]-2,4-pyrimidinediamine]",≤ 100 nM,≤ 100 nM
"CN1CCN(c2cccc(Nc3ncc(F)c(NC4C5C=CC(C5)C4C(N)=O)n3)c2)CC1 (racemic) [compound 231, Racemic-(2-exo,3-exo)-N4-(3-aminocarbonylbicyclo[2.2.1]hept-5-en-2-yl)-5-fluoro-N2-[3-(4-methylpiperazin-1-yl)]phenyl-2,4-pyrimidinediamine]",≤ 100 nM,≤ 100 nM
"Cc1cc(Nc2ncc(F)c(NC3C4C=CC(C4)C3C(N)=O)n2)ccc1N1CCN(C(C)C)CC1 (racemic) [compound 232, Racemic-(2-exo,3-exo)-N4-(3-aminocarbonylbicyclo[2.2.1]hept-5-en-2-yl)-5-fluoro-N2-[4-(4-isopropylpiperazin-1-yl)-3-methylphenyl]-2,4-pyrimidinediamine]",≤ 100 nM,≤ 100 nM
"Cc1cc(Nc2ncc(F)c(N[C@@H]3[C@H]4CC[C@H](C4)[C@@H]3C(N)=O)n2)ccc1N1CCN(C)CC1 (racemic) [compound 240, Racemic-(2-exo,3-exo)-N4-(3-aminocarbonylbicyclo[2.2.1]hept-2-yl)-5-fluoro-N2-[3-methyl-4-(4-methylpiperazin-1-yl)phenyl]-2,4-pyrimidinediamine]",≤ 100 nM,≤ 100 nM
"CCN1CCN(c2ccc(Nc3ncc(F)c(NC4C5C=CC(C5)C4C(N)=O)n3)cc2C)CC1 (racemic) [compound 241, Racemic-(2-exo,3-exo)-N4-(3-aminocarbonylbicyclo[2.2.1]hept-5-en-2-yl)-N2-[4-(4-ethylpiperazin-1-yl)-3-methylphenyl]-5-fluoro-2,4-pyrimidinediamine]",≤ 100 nM,≤ 100 nM
"Cc1cc(Nc2ncc(F)c(NC3C4C=CC(C4)C3C(N)=O)n2)ccc1N1CCN(C2CCCCC2)CC1 (racemic) [compound 245, Racemic-(2-exo,3-exo)-N4-(3-aminocarbonylbicyclo[2.2.1]hept-5-en-2-yl)-N2-[4-(4-cyclohexylpiperazin-1-yl)-3-methylphenyl]-5-fluoro-2,4-pyrimidinediamine]",≤ 100 nM,≤ 100 nM
"Cc1cc(Nc2ncc(F)c(NC3C4C=CC(C4)C3C(N)=O)n2)ccc1O (racemic) [compound 250, Racemic-(2-exo,3-exo)-N4-(3-aminocarbonylbicyclo[2.2.1]hept-5-en-2-yl)-5-fluoro-N2-[(4-hydroxy-3-methyl)phenyl]-2,4-pyrimidinediamine]",≤ 100 nM,≤ 100 nM
"Cc1cc(Nc2ncc(F)c(NC3C4C=CC(C4)C3C(N)=O)n2)ccc1N1CCSCC1 (racemic) [compound 251, Racemic-(2-exo,3-exo)-N4-(3-aminocarbonylbicyclo[2.2.1]hept-5-en-2-yl)-5-fluoro-N2-[(3-methyl-1-thiomorpholin-4-yl)phenyl]-2,4-pyrimidinediamine]",≤ 100 nM,≤ 100 nM
"Cc1cc(Nc2ncc(F)c(NC3C4CCC(C4)C3C(=O)NC3CC3)n2)ccc1N1CCN(C)CC1 (racemic) [compound 252, Racemic-(2-exo,3-exo)-N4-(3-N-cyclopropylaminocarbonylbicyclo[2.2.1]hept-2-yl)-5-fluoro-N2-[3-methyl-4-(4-methylpiperazin-1-yl)phenyl]-2,4-pyrimidinediamine]",≤ 100 nM,≤ 100 nM
"CNC(=O)c1cc(Nc2ncc(F)c(NC3C4C=CC(C4)C3C(=O)OC)n2)ccc1N1CCN(C)CC1 (racemic) [compound 254, Racemic-(2-exo,3-exo)-5-fluoro-N4-(3-methoxycarbonylbicyclo [2.2.1]hept-5-en-2-yl)-N2-[3-methylaminocarbonyl-4-(4-methylpiperazin-1-yl)phenyl]-2,4-pyrimidinediamine]",1000 to 10000 nM,1000 to 10000 nM
"CCS(=O)(=O)N1CCN(c2ccc(Nc3ncc(F)c(NC4C5C=CC(C5)C4C(N)=O)n3)cc2C)CC1 (racemic) [compound 261, Racemic-(2-exo,3-exo)-N4-(3-aminocarbonylbicyclo[2.2.1]hept-5-en-2-yl)-N2-[4-(4-ethylsulfonylpiperazin-1-yl)-3-methylphenyl]-5-fluoro-2,4-pyrimidinediamine]",≤ 100 nM,≤ 100 nM
"Cc1cc(Nc2ncc(F)c(NC3C4C=CC(C4)C3C(N)=O)n2)ccc1NC1CCN(C)CC1 (racemic) [compound 262, Racemic-(2-exo,3-exo)-N4-(3-aminocarbonylbicyclo[2.2.1]hept-5-en-2-yl)-5-fluoro-N2-[3-methyl-4-(1-methylpiperidin-4-ylamino)phenyl]-2,4-pyrimidinediamine]",≤ 100 nM,≤ 100 nM
"NC(=O)C1C2C=CC(C2)C1Nc1nc(Nc2ccc(C3CCNCC3)cc2)ncc1F (racemic) [compound 264, Racemic-(2-exo,3-exo)-N4-(3-aminocarbonylbicyclo[2.2.1]hept-5-en-2-yl)-5-fluoro-N2-[4-(piperidin-4-yl)phenyl]-2,4-pyrimidinediamine]",≤ 100 nM,100 to 1000 nM
"CN1CCC(c2ccc(Nc3ncc(F)c(NC4C5C=CC(C5)C4C(N)=O)n3)cc2)CC1 (racemic) [compound 265, Racemic-(2-exo,3-exo)-N4-(3-aminocarbonylbicyclo[2.2.1]hept-5-en-2-yl)-5-fluoro-N2-[4-(1-methylpiperidin-4-yl)phenyl]-2,4-pyrimidinediamine]",≤ 100 nM,≤ 100 nM
"COc1cc(Nc2ncc(F)c(N[C@@H]3[C@H](C(N)=O)[C@H]4C=C[C@@H]3C4)n2)ccc1N1C(=O)CN(C)CC1=O (racemic) [compound 266, Racemic-(2-exo,3-exo)-N4-(3-aminocarbonylbicyclo[2.2.1]hept-5-en-2-yl)-5-fluoro-N2-[3-methoxy-4-(4-methyl-2,6-dioxopiperazino)phenyl]-2,4-pyrimidinediamine]",100 to 1000 nM,100 to 1000 nM
"NC(=O)C1C2C=CC(C2)C1Nc1nc(Nc2cccc(C3CCNCC3)c2)ncc1F (racemic) [compound 267, Racemic-(2-exo,3-exo)-N4-(3-aminocarbonylbicyclo[2.2.1]hept-5-en-2-yl)-5-fluoro-N2-[3-(piperidin-4-yl)phenyl]-2,4-pyrimidinediamine]",≤ 100 nM,≤ 100 nM
